Assay results reported in US20070154567A1, “Use of mercury to treat cancer” (priority 2006, published 2007).
“And” between values parts separate entries of the source, which are not always exact repeats. Identical values can stand only once.

Tested on: metastatic hepatocellular carcinoma
Assay: Oral inorganic mercury (II) treatment of a pet Husky after tumor removal: blood data and clinical follow-up
Type: in vivo, dog
Set-up: Corrected Calcium / MCV / MCH / MCHC / Neutrophils, absolute / Bands / Lymphocytes, absolute / Monocytes, absolute / Eosinophils, absolute / Basophils, absolute: unit not given here
Experimental: A 10 yrs old female Husky, 54 lbs was diagnosed with metastatic hepatocellular carcinoma. The tumor was surgically removed prior to treatment. The prognosis after the surgery was poor with 1-2 months of life expectancy.
The 90-day inorganic mercury (II) treatment consisted of two 30-day treatment courses and one 30-day interval period. The formulation contained 1 mM mercury acetate in 20 mM sodium acetate buffer, pH 4.5, with 100 mM sucrose and 150 mM sodium chloride additives. The formulation was introduced orally to the pet three times a day 1 hour before food at 0.5 micromole Hg^2+/kg/day. In the beginning of treatment the dog had high levels of alkaline phosphatase (ALP) and alanine transferase (ALT), two liver enzymes known to be associated with liver tumor progression (de Oliveira e Silva et al., Arq Gastroenterol. 1990, 27(2):83-94). […] On Day 3 ALP and ALT were 1950 U/L and 119 U/L, respectively. On day 30 ALP dropped to 495 U/L, whereas ALT was decreased to 27 U/L. Decreases in ALP and ALT levels were correlated well with the improvement of dog's general condition during the first treatment course. During the second treatment course, according to owner's and veterinarian's notes, the dog continued to show improvement and at the end of the treatment period it acted as a healthy dog. Unfortunately, the owner chose not to take blood tests after day 30.

In the case of `CC(=O)[O-].CC(=O)[O-].[Hg+2]` [inorganic mercury (II), mercury acetate], the “health / cancer status of the dog” value (10 months after treatment) is reported as “remains in good health and is apparently cancer-free”, the “ALT (SGPT)” value (Day 3) is reported as 119 U/L and 119 (H) U/L and the “AST (SGOT)” value (Day 3) is reported as 30 U/L. The Albumin (Day 3) was 3.1 g/dL, the “Albumin/Globulin Ratio” value (Day 3) was 1.1 and the “Alkaline Phosphatase (ALP)” value (Day 3) was 1950 U/L and 1950 (H) U/L. The Amylase (Day 3) was 369 U/L, the “BUN/Creatinine Ratio” value (Day 3) was 17 and the Bands (Day 3) was 0. For the same molecule, the “Basophils, absolute” value (Day 3) was 0, the CPK (Day 3) was 161 U/L and the Calcium (Day 3) was 9.4 mg/dL. The Chloride (Day 3) was 114 mE/L, the Cholesterol (Day 3) was 250 mg/dL and the “Corrected Calcium” value (Day 3) was 9.8. The Creatinine (Day 3) was 1.0 mg/dL, the “Eosinophils, (%)” value (Day 3) was 7% and the “Eosinophils, absolute” value (Day 3) was 812. The Globulin (Day 3) was 2.8 g/dL, the Glucose (Day 3) was 94 mg/dL and the Hematocrit (Day 3) was 43.1%. For the same molecule, the Hemoglobin (Day 3) was 14.7 g/dL, the “Lymphocytes, (%)” value (Day 3) was 18% and the “Lymphocytes, absolute” value (Day 3) was 2088. For the same molecule, the MCH (Day 3) was 22.3, the MCHC (Day 3) was 34.1 and the MCV (Day 3) was 65. For the same molecule, the “Monocytes, (%)” value (Day 3) was 4%, the “Monocytes, absolute” value (Day 3) was 464 and the “Neutrophils, (%)” value (Day 3) was 71%. For the same molecule, the “Neutrophils, absolute” value (Day 3) was 8236, the Phosphorus (Day 3) was 3.8 mg/dL and the Platelet count (Day 3) was 394 10^3/microl. The Potassium (Day 3) was 4.5 mE/L, the RBC (Day 3) was 6.59 10^6/microl and the Sodium (Day 3) was 149 mE/L. For the same molecule, the “Total Billirubin” value (Day 3) was 0.1 mg/dL, the “Total Protein” value (Day 3) was 5.9 g/dL and the “Urea Nitrogen” value (Day 3) was 17 mg/dL. The WBC (Day 3) was 11.6 10^3/microl, the “ALT (SGPT)” value (Day 9) was 51 U/L and the “AST (SGOT)” value (Day 9) was 18 U/L. The Albumin (Day 9) was 3.2 g/dL, the “Albumin/Globulin Ratio” value (Day 9) was 1.1 and the “Alkaline Phosphatase (ALP)” value (Day 9) was 1368 (H) U/L. The Amylase (Day 9) was 348 U/L, the “BUN/Creatinine Ratio” value (Day 9) was 8 and the Bands (Day 9) was 0. For the same molecule, the “Basophils, absolute” value (Day 9) was 0, the CPK (Day 9) was 119 U/L and the Calcium (Day 9) was 9.8 mg/dL. The Chloride (Day 9) was 115 mE/L, the Cholesterol (Day 9) was 237 mg/dL and the “Corrected Calcium” value (Day 9) was 10.1. For the same molecule, the Creatinine (Day 9) was 1.0 mg/dL, the “Eosinophils, (%)” value (Day 9) was 3% and the “Eosinophils, absolute” value (Day 9) was 405. For the same molecule, the Globulin (Day 9) was 3.0 g/dL, the Glucose (Day 9) was 93 mg/dL and the Hematocrit (Day 9) was 53.1%. The Hemoglobin (Day 9) was 17.4 g/dL, the “Lymphocytes, (%)” value (Day 9) was 15% and the “Lymphocytes, absolute” value (Day 9) was 2025. It also gave an MCH (Day 9) of 21.8, an MCHC (Day 9) of 32.8 and an MCV (Day 9) of 67. For the same molecule, the “Monocytes, (%)” value (Day 9) was 3%, the “Monocytes, absolute” value (Day 9) was 405 and the “Neutrophils, (%)” value (Day 9) was 79%. The “Neutrophils, absolute” value (Day 9) was 10665, the Phosphorus (Day 9) was 3.8 mg/dL and the Platelet count (Day 9) was 406 (H) 10^3/microl. The Potassium (Day 9) was 4.7 mE/L, the RBC (Day 9) was 7.97 10^6/microl and the Sodium (Day 9) was 152 mE/L. For the same molecule, the “Total Billirubin” value (Day 9) was 0.1 mg/dL, the “Total Protein” value (Day 9) was 6.2 g/dL and the “Urea Nitrogen” value (Day 9) was 8 mg/dL. For the same molecule, the WBC (Day 9) was 13.5 10^3/microl, the “ALT (SGPT)” value (Day 30) was 27 U/L and the “AST (SGOT)” value (Day 30) was 26 U/L. For the same molecule, the Albumin (Day 30) was 3.4 g/dL, the “Albumin/Globulin Ratio” value (Day 30) was 1.1 and the “Alkaline Phosphatase (ALP)” value (Day 30) was 495 U/L and 495 (H) U/L. For the same molecule, the Amylase (Day 30) was 349 U/L, the “BUN/Creatinine Ratio” value (Day 30) was 16 and the Bands (Day 30) was 0. For the same molecule, the “Basophils, absolute” value (Day 30) was 0, the CPK (Day 30) was 488 U/L and the Calcium (Day 30) was 10.3 mg/dL. The Chloride (Day 30) was 117 mE/L, the Cholesterol (Day 30) was 248 mg/dL and the “Corrected Calcium” value (Day 30) was 10.4. For the same molecule, the Creatinine (Day 30) was 0.9 mg/dL, the “Eosinophils, (%)” value (Day 30) was 6% and the “Eosinophils, absolute” value (Day 30) was 504. For the same molecule, the Globulin (Day 30) was 3.0 g/dL, the Glucose (Day 30) was 113 mg/dL and the Hematocrit (Day 30) was 50.3%. The Hemoglobin (Day 30) was 15.8 g/dL, the “Lymphocytes, (%)” value (Day 30) was 17% and the “Lymphocytes, absolute” value (Day 30) was 1428. It also gave an MCH (Day 30) of 20.9, an MCHC (Day 30) of 31.4 and an MCV (Day 30) of 66. The “Monocytes, (%)” value (Day 30) was 4%, the “Monocytes, absolute” value (Day 30) was 336 and the “Neutrophils, (%)” value (Day 30) was 73%. For the same molecule, the “Neutrophils, absolute” value (Day 30) was 6132, the Phosphorus (Day 30) was 3.3 mg/dL and the Platelet count (Day 30) was 385 10^3/microl. For the same molecule, the Potassium (Day 30) was 4.1 mE/L, the RBC (Day 30) was 7.57 10^6/microl and the Sodium (Day 30) was 152 mE/L. The “Total Billirubin” value (Day 30) was 0.1 mg/dL, the “Total Protein” value (Day 30) was 6.4 g/dL and the “Urea Nitrogen” value (Day 30) was 14 mg/dL. For the same molecule, the WBC (Day 30) was 8.4 10^3/microl and the “levels of ALP and ALT” value (during the first treatment course) was “dramatically decreased”.
